Assay: Henry solubility constant Hcp at 298.15 K (mol/(m3 Pa))
Settings: reference: Lee et al. (2012)

Row | Structure (SMILES) | Henry solubility constant Hcp
1 | Clc1cccc(Cl)c1Cl [1,2,3-trichlorobenzene] | 0.008
2 | Clc1cc(Cl)c(Cl)cc1Cl [1,2,4,5-tetrachlorobenzene] | 0.0066
3 | c1ccc2c(c1)Cc1ccccc1-2 [2,3-benzindene] | 0.32
4 | Cc1c([N+](=O)[O-])c(C)c([N+](=O)[O-])c(C(C)(C)C)c1[N+](=O)[O-] [2,4,6-trinitro-1,3-dimethyl-5-tert-butylbenzene] | 0.32
5 | c1cc2c3c(cccc3c1)CC2 [acenaphthene] | 0.26
6 | c1ccc2cc3ccccc3cc2c1 [anthracene] | 0.16
7 | c1ccc2c(c1)cc1ccc3cccc4ccc2c1c34 [benzo[a]pyrene] | 6.2
8 | c1ccc2c(c1)-c1cccc3cccc-2c13 [benzo[jk]fluorene] | 0.34
9 | c1ccc2cc3c(cc2c1)-c1cccc2cccc-3c12 [benzo[k]fluoranthene] | 10
10 | CCCCOC(=O)c1ccccc1C(=O)OCc1ccccc1 [butyl benzyl phthalate] | 100
11 | c1ccc2c(c1)ccc1c3ccccc3ccc21 [chrysene] | 2.1
12 | CCCCOC(=O)c1ccccc1C(=O)OCCCC [dibutyl phthalate] | 9.3
13 | CC(=O)c1c(C)c([N+](=O)[O-])c(C(C)(C)C)c([N+](=O)[O-])c1C [musk ketone] | 3
14 | c1ccc2ccccc2c1 [naphthalene] | 0.06
15 | c1ccc2c(c1)ccc1ccccc12 [phenanthrene] | 0.18

— Sander's compilation of Henry's law constants (doi:10.1021/je300954s)
